{"source": "a melting point compilation (Tetko et al.; mined from patent text by program, amines drawn as free bases though some values may be those of a salt)"}
{"units": {"melting point": "°C"}}
{"smiles": "OC[C@H]1CCCN1c1nc2c(-c3nc(C4CC4)no3)ncn2c2cccc(Cl)c12", "melting point": "220 to 221"}
{"smiles": "CC(C)(C)c1csc(-c2cc3cc(CCC(=O)O)ccc3o2)n1", "melting point": "157 to 160"}
{"smiles": "CC(C)NCC(O)C(Oc1ccccc1)c1ccccc1", "note": "(centres undefined)", "melting point": "95 to 96"}
{"smiles": "CNC(Cc1cc(Cl)ccc1N)c1sccc1C", "note": "(centres undefined)", "melting point": "59 to 61"}
{"smiles": "CCNC(=O)Nc1ccc(C(O)(C(F)(F)F)C(F)(F)F)cc1Br", "melting point": "125 to 127"}
{"smiles": "COc1ccc2c(c1)OC(C)(C)C(NC(=O)c1cc(F)ccc1OC)C2=O", "note": "(centres undefined)", "melting point": "143 to 144"}
{"smiles": "CCCCCCCCCCCCCCOc1ccc(COC(=O)N(Cc2ccccn2)C(C)=O)cc1", "melting point": "52 to 53"}
{"smiles": "CC(C)C[C@H](CC(=O)OC(C)(C)C)C(=O)N1C(=O)OC[C@@H]1C(C)C", "melting point": "143 to 144"}
{"smiles": "CC(=O)N1CCc2c(c3cccc4c3n2CCS4)C1", "melting point": "161 to 163"}
{"smiles": "CCn1nc(-c2sc(C(=O)NCc3ccccn3)nc2-c2ccccc2)ccc1=O", "melting point": "169 to 170"}
{"smiles": "O=C1c2cc(OCc3ccccc3Cl)ccc2CCN1Cc1cccnc1", "melting point": "88.5 to 90"}
{"smiles": "COc1ccc(CSc2nnc(-c3ccc4nccn4c3)o2)cc1C#N", "melting point": "211 to 212"}
{"smiles": "OC[C@@H](O)c1ccccc1Cl", "melting point": 39}
{"smiles": "CC(C)(C)c1cccc(S(=O)(=O)n2c(Cc3ccc(C4=NOC(=O)C4)cc3)cc3cc(C(F)(F)F)ccc32)c1", "melting point": 70}
{"smiles": "COc1ccc2sc(C(=O)OCc3ccccc3)c(OCc3ccccc3)c2c1", "melting point": "66 to 67"}
{"smiles": "COc1nc(Cl)nc2c1ncn2C1CC(O)C(CO)O1", "note": "(centres undefined)", "melting point": "141 to 142"}
{"smiles": "O=S1(=O)c2cccc3cccc(c23)N1CCCN1CCN(c2cccc(F)c2)CC1", "melting point": 103}
{"smiles": "COC(=O)C1=C(C)NC(C)=C(C(=O)OC)C1c1ccc(OCC(=O)NCCO[N+](=O)[O-])c(OC)c1", "melting point": "149 to 150"}
{"smiles": "O=C1COc2cccc3nc4c(c(c23)N1)CCCC4", "melting point": "201 to 202"}
{"smiles": "CN1CCN(CCCc2c[nH]c(-c3ccc(F)cc3)c2-c2ccncc2)CC1", "melting point": "190 to 192"}
{"smiles": "O=C(c1ccc(Nc2nc(-c3ccccc3)nc3ccccc23)cc1)N1CCN(c2ncc(Cc3ccccc3)cn2)CC1", "melting point": "> 250"}
{"smiles": "COc1ccc(-c2nc(CCCCCCc3nnn[nH]3)oc2-c2ccc(OC)cc2)cc1", "melting point": 124}
{"smiles": "CCCCc1oc2ccccc2c1/C=N/OCCCOc1ccc(C(=O)O)c(O)c1", "melting point": "140 to 142"}
{"smiles": "CCCN1CCCN(c2ccccc2)c2cc(Cl)ccc21", "melting point": "192 to 194"}
{"smiles": "COc1cc2ncc(N3C(=O)C4CCC3CC4)nc2cc1OC", "melting point": "158 to 159"}
{"smiles": "COc1ccc(C(Cc2ccccc2)=NO)cc1", "melting point": "132 to 135"}
{"smiles": "COc1cc(OC)nc(Oc2cccc(Oc3nc(OC)cc(OC)n3)c2C(=O)OCc2ccccc2)n1", "melting point": "130 to 132"}
{"smiles": "Cc1ccc(I)c(C(O)(C(F)(F)F)C(F)(F)F)c1", "melting point": "38 to 39"}
{"smiles": "COc1ccc2cc(C(C)C(O)(P(=O)(O)O)P(=O)(O)O)ccc2c1", "note": "(centres undefined)", "melting point": 205}
{"smiles": "Cc1oc(-c2ccccc2)nc1CCOc1ccc(COc2ccccc2CC(=O)O)cn1", "melting point": "159 to 160"}
{"smiles": "Oc1ccc(-c2nnc(CCCCCCc3ccccc3)o2)cc1", "melting point": "125 to 129"}
{"smiles": "CCCCCCCCc1ccccc1CCC(NC(C)=O)(C(=O)OCC)C(=O)OCC", "melting point": "37 to 38"}
{"smiles": "CC(C)(C)OC(=O)Nc1ccc(-c2cccc(F)c2)cc1NC(=O)CC(=O)c1cccc(C#N)c1", "melting point": "148 to 150"}
{"smiles": "CC(C)(C)OC(=O)c1n[nH]c2nc(N3CCNCC3)ccc12", "melting point": "190 to 191"}
{"smiles": "CN1CCc2c(c3ccc(-n4ccc(-c5ccc(C(F)(F)F)nc5)cc4=O)cc3n2C)C1", "melting point": "295 to 300"}
{"smiles": "COc1ccc2c(c1)C(=O)C(C)(C)C(=O)N2", "melting point": "169 to 170"}
{"smiles": "CC(=O)NNc1ccnc2c(NC(=O)c3c(Cl)cccc3Cl)cccc12", "melting point": 252}
{"smiles": "Cc1ccc(C(=O)NCc2cc(C(C)C)no2)cc1", "melting point": "107 to 116"}
{"smiles": "OCc1cnc2c(F)cccc2c1O", "melting point": "176 to 178"}
